Common to all, as to assay type: cell-based
For experiment [1], the system named is Escherichia coli ATCC25922. The experiment is described as follows: MIC, microbroth dilution. Particulars: Escherichia coli ATCC25922, rifS; read-out: Antimicrobial activity (MIC). On the technique in general: In broth dilution the organism is exposed to a series of concentrations in liquid medium.
In experiment [2] the test system is Haemophilus influenzae ATCC10211. The experiment is described as follows: MIC, microbroth dilution. To be noted: Haemophilus influenzae ATCC10211, rifS; read-out: Antimicrobial activity (MIC).
The subject of experiment [3] is Staphylococcus aureus ATCC29213 rpoB^D417Y. As to the kind of experiment: microbe, parasite or virus in culture. To be noted: Staphylococcus aureus ATCC29213 rpoB^D417Y, rifR; read-out: Antimicrobial activity (MIC). The protocol: (§1) Representative compounds were assayed for antimicrobial activity as follows: Minimum Inhibitory Concentrations (“MICs”) were determined by the microbroth dilution method as per NCCLS guidelines (National Committee for Clinical Laboratory Standards. 2000. Methods for dilution antimicrobial susceptibility tests for bacteria that grow aerobically, 5th ed. M7-A5. National Committee for Clinical Laboratory Standards, Wayne, Pa.), except that all growth incubations were conducted at 37° C. Bacterial cultures were tested in the following bacteriological media: S. aureus, S. epidermidis, and E. coli in Cation-Adjusted Mueller-Hinton Broth, S. pneumoniae in THY Broth supplemented with 1 mg/mL catalase under 5% CO2 atmosphere, S. pyogenes in THY Broth, E. faecalis in BHI Broth, H. influenzae in BHI Broth supplemented with 0.75 μL of 1 mg/mL NAD and 150 μL of 1 mg/ml hematin per 5 mL, and M. smegmatis in Middlebrook Broth plus ADC Enrichment.
(§2) S. aureus ATCC 29213 RpoB^H418Y is a rifampin-resistant strain with a mutation in the RpoB gene of RNA polymerase. […] S. aureus EN1252a gyrA^S84L grlA^S80F is a quinolone-resistant strain due to double gene mutations of DNA gyrase and topoisomerase IV.

The subject of experiment [4] is Staphylococcus aureus EN1252a gyrA^S84L grlA^S80F. The experiment is described as follows: microbe, parasite or virus in culture. Particulars: Staphylococcus aureus EN1252a gyrA^S84L grlA^S80F, cipR; read-out: Antimicrobial activity (MIC). The protocol:
as §1, §2

Experiment [5] deals with Staphylococcus aureus ATCC29213 rpoB^H418Y. The experiment is described as follows: microbe, parasite or virus in culture. To be noted: Staphylococcus aureus ATCC29213 rpoB^H418Y, rifR; read-out: Antimicrobial activity (MIC). The protocol:
as §1, §2

For experiment [6], the system named is Staphylococcus aureus ATCC29213. The experiment is described as follows: MIC, microbroth dilution. Particulars: Staphylococcus aureus ATCC29213, rifS; read-out: Antimicrobial activity (MIC).
Experiment [7] relates to Streptococcus pyogenes ATCC19615. As to the kind of experiment: MIC, microbroth dilution. To be noted: Streptococcus pyogenes ATCC19615, rifS; read-out: Antimicrobial activity (MIC).
Experiment [8] has as its system Streptococcus pneumoniae ATCC6303. As to the kind of experiment: MIC, microbroth dilution. Particulars: Streptococcus pneumoniae ATCC6303, rifS; read-out: Antimicrobial activity (MIC).
The test system of experiment [9] is Staphylococcus epidermidis ATCC12228. The experiment is described as follows: MIC, microbroth dilution. To be noted: Staphylococcus epidermidis ATCC12228, rifS; read-out: Antimicrobial activity (MIC).
For experiment [10], the system named is Mycobacterium smegmatis ATCC700084. As to the kind of experiment: MIC, microbroth dilution. To be noted: Mycolicibacterium smegmatis; Mycobacterium smegmatis ATCC700084, rifS; read-out: Antimicrobial activity (MIC).
Experiment [11] relates to Enterococcus faecalis ATCC29212. As to the kind of experiment: MIC, microbroth dilution. Particulars: Enterococcus faecalis ATCC29212, rifS; read-out: Antimicrobial activity (MIC).

Consider 4 compounds from patent US7256187B2, “Rifamycin C-11 oxime derivatives effective against drug-resistant microbes” (Cumbre Pharmaceuticals Inc., priority 2004, dated 2007).

Molecules are shown by their SMILES. Converted amounts (≈) assume the structure as drawn.

In the case of `CO[C@H]1/C=C/O[C@@]2(C)Oc3c(C)c(O)c4c(c3/C2=N/OCCN2CCN(Cc3ccccc3)CC2)C(=O)C=C(NC(=O)/C(C)=C\C=C\[C@H](C)[C@H](O)[C@@H](C)[C@@H](O)[C@@H](C)[C@H](OC(C)=O)[C@@H]1C)C4=O` [Example 25, 11-Deoxy-11-[2-(4-benzylpiperazin-1-yl)ethoxyimino]rifamycin S], the MIC in experiment [1] lay in the range of 0.125 to 8 µg/mL (≈ 0.137 to 8.76 µM); in experiment [2] it was 0.03 to 2 µg/mL (≈ 0.0329 to 2.19 µM); in [3], 0.25 to 32 µg/mL (≈ 0.274 to 35 µM); in experiment [4] it was 0.004 to 0.5 µg/mL (≈ 0.00438 to 0.548 µM); in [5], 0.125 to 16 µg/mL (≈ 0.137 to 17.5 µM); in experiment [6], 0.004 to 0.5 µg/mL (≈ 0.00438 to 0.548 µM). For the same compound, the MIC fell in the range of 0.0005 to 0.063 µg/mL (≈ 0.000548 to 0.069 µM) in experiment [7]; 0.0002 to 0.125 µg/mL (≈ 0.000219 to 0.137 µM) in experiment [8]; 0.0005 to 0.063 µg/mL (≈ 0.000548 to 0.069 µM) in [9]; 0.5 to 64 µg/mL (≈ 0.548 to 70.1 µM) in experiment [10]; 2 to 32 µg/mL (≈ 2.19 to 35 µM) in [11].

Take `CO[C@H]1/C=C/O[C@@]2(C)Oc3c(C)c(O)c4c(c3/C2=N/OCCN2CCN(c3ccccc3O)CC2)C(=O)C=C(NC(=O)/C(C)=C\C=C\[C@H](C)[C@H](O)[C@@H](C)[C@@H](O)[C@@H](C)[C@H](OC(C)=O)[C@@H]1C)C4=O` [Example 26, 11-Deoxy-11-{2-[4-(2-hydroxy-phenyl)piperazin-1-yl]ethoxyimino}rifamycin S]: the MIC in experiment [1] was in the range of 0.125 to 8 µg/mL (≈ 0.137 to 8.74 µM); in experiment [2], 0.03 to 2 µg/mL (≈ 0.0328 to 2.19 µM); in experiment [3], 0.25 to 32 µg/mL (≈ 0.273 to 35 µM); in experiment [4] it was 0.004 to 0.5 µg/mL (≈ 0.00437 to 0.546 µM); in experiment [5], 0.125 to 16 µg/mL (≈ 0.137 to 17.5 µM); in [6] it was 0.004 to 0.5 µg/mL (≈ 0.00437 to 0.546 µM). Further, the MIC lay in the range of 0.0005 to 0.063 µg/mL (≈ 0.000546 to 0.0688 µM) in [7]; 0.0002 to 0.125 µg/mL (≈ 0.000219 to 0.137 µM) in experiment [8]; 0.0005 to 0.063 µg/mL (≈ 0.000546 to 0.0688 µM) in experiment [9]; 0.5 to 64 µg/mL (≈ 0.546 to 69.9 µM) in [10]; 2 to 32 µg/mL (≈ 2.19 to 35 µM) in [11].

Turning to `CO[C@H]1/C=C/O[C@@]2(C)Oc3c(C)c(O)c4c(c3/C2=N/O)C(=O)C(CO)=C(NC(=O)/C(C)=C\C=C\[C@H](C)[C@H](O)[C@@H](C)[C@@H](O)[C@@H](C)[C@H](OC(C)=O)[C@@H]1C)C4=O` [Example 27], the MIC in experiment [1] lay within 0.125 to 8 µg/mL (≈ 0.169 to 10.8 µM); in experiment [2], 0.03 to 2 µg/mL (≈ 0.0405 to 2.7 µM); in [3] it was 0.25 to 32 µg/mL (≈ 0.337 to 43.2 µM); in [4] it was 0.004 to 0.5 µg/mL (≈ 0.0054 to 0.675 µM); in experiment [5], 0.125 to 16 µg/mL (≈ 0.169 to 21.6 µM); in experiment [6] it was 0.004 to 0.5 µg/mL (≈ 0.0054 to 0.675 µM). The MIC in experiment [7] was 0.0005 to 0.063 µg/mL (≈ 0.000675 to 0.085 µM); in experiment [8] it was 0.0002 to 0.125 µg/mL (≈ 0.00027 to 0.169 µM); in experiment [9] it was 0.0005 to 0.063 µg/mL (≈ 0.000675 to 0.085 µM); in experiment [10] it was 0.5 to 64 µg/mL (≈ 0.675 to 86.4 µM); in experiment [11], 2 to 32 µg/mL (≈ 2.7 to 43.2 µM).

As to `CO[C@H]1/C=C/O[C@@]2(C)Oc3c(C)c(O)c4c(c3/C2=N/OCC(=O)O)C(=O)C(N2CCOCC2)=C(NC(=O)/C(C)=C\C=C\[C@H](C)[C@H](O)[C@@H](C)[C@@H](O)[C@@H](C)[C@H](OC(C)=O)[C@@H]1C)C4=O` [Example 28, 11-Deoxy-3-(morpholin-4-yl)-11-(4-carboxymethoxyimino)-rifamycin S], the MIC in experiment [1] was 0.125 to 8 µg/mL (≈ 0.146 to 9.37 µM); in experiment [2], 0.03 to 2 µg/mL (≈ 0.0351 to 2.34 µM); in experiment [3], 0.25 to 32 µg/mL (≈ 0.293 to 37.5 µM); in experiment [4] it was 0.004 to 0.5 µg/mL (≈ 0.00468 to 0.586 µM); in experiment [5] it was 0.125 to 16 µg/mL (≈ 0.146 to 18.7 µM); in experiment [6], 0.004 to 0.5 µg/mL (≈ 0.00468 to 0.586 µM). Moreover, the MIC lay in the range of 0.0005 to 0.063 µg/mL (≈ 0.000586 to 0.0738 µM) in experiment [7]; 0.0002 to 0.125 µg/mL (≈ 0.000234 to 0.146 µM) in experiment [8]; 0.0005 to 0.063 µg/mL (≈ 0.000586 to 0.0738 µM) in experiment [9]; 0.5 to 64 µg/mL (≈ 0.586 to 74.9 µM) in [10]; 2 to 32 µg/mL (≈ 2.34 to 37.5 µM) in experiment [11].
